Laboratory results reported in PMC9115112, “A2B adenosine receptor antagonists rescue lymphocyte activity in adenosine-producing patient-derived cancer models” (Journal for Immunotherapy of Cancer, 2022).

Assays:
Assay type in all cases: cell-based, human
healthy donor PBMCs = test: Cell viability of healthy donor PBMCs on antagonist treatment (data not shown)
Experimental: Supplementary methods and results
Annexin V viability analysis
Cells were washed with Annexin V binding buffer (BioLegend) then incubated with Alexa Fluor 647 – conjugated Annexin V (BioLegend) at room temperature for 15 minutes. For A2AAR and A2BAR expression profiling, cells were washed with BD Perm/Wash then incubated with BD CytoFix/CytoPerm at 4°C for 20 minutes. The cells were then washed and stained with PE-conjugated A2AAR mouse antibody (Clone 7F6-G5-A2; Santa Cruz Biotechnology, sc-32261 PE) at room temperature for 30 minutes. After washing twice to remove most A2AAR antibody possible, goat A2BAR primary antibody (Clone PA5-18422; Thermo Fisher Scientific) was incubated at 4°C overnight. The cells were subsequently washed and stained with Alexa Fluor 488-conjugated anti-goat secondary antibody (Thermo Fisher Scientific) at room temperature for 1 hour. The cells were then washed with FC buffer twice before acquiring on NovoCyte. A2AAR and A2BAR fluorescence minus one (FMO) staining were also prepared. For differential expression of ADO ectonucleotidases, day five patient-derived sarcoma spheroids were digested and stained for CD45, CD73 and CD39 using the same procedures as cell surface staining (Supplementary Table 1).
Public database bioinformatic analysis […]

[1] = test system: healthy donor T cells (PBMCs) and NK cells; test: CFSE proliferation assay with exogenous adenosine; details: higher concentration further restoring proliferation, data not shown
[2] = test system: sarcoma TILs against autologous tumor cells; test: Chromium (51Cr) release cytotoxicity assay, sarcoma TILs; details: synthetic ADO, 24 hours
Experimental: Chromium (51Cr) release cytotoxicity assay
Chromium (51Cr) release assay was used to measure the autologous TILs-mediated cytotoxicity against the established patient-derived breast and […] cell lines. Briefly, breast and sarcoma tumor cells were labelled with 51Cr (PerkinElmer) as target cells and seeded on 96-well V-bottom plate (Corning) at 5 000cells/well. Effector TILs were added at the indicated Effector: Target (E:T) ratios. The supernatants were collected carefully into LUMA plates (PerkinElmer) after 24 and 48 hours of co-culture. After drying overnight, radioactivity of the plate was read with MicroBeta2 (PerkinElmer).
Relative adenosine production assay
An ectonucleotidase CD73 assay was optimized to measure the relative ADO production based on competitive AMP blockade and presence of CD73+ cells. Day five patient-derived sarcoma spheroids were digested and split into triplicates in X-VIVO20 and 1% PS culture media with an excessive amount of AMP at 0.4mM (Sigma-Aldrich) incubated for 30 minutes.
After 1500 RPM was applied for three minutes, 25 μL supernatant were removed and mixed with 25 μL of 200 μM ATP (Sigma-Aldrich) in the same media. 25 μL of this mixture was added to a white opaque OptiPlate (PerkinElmer) containing 25 μL Cell-Titer Glo reagent (Promega, US). Relative luminescence unit (RLU) can be read on SPARK 10M plate reader with an integration time of 100ms. […]

[3] = test system: healthy donor T cells in MPNST patient-derived sarcoma spheroid; test: Proliferation assay with CD73-expressing patient-derived sarcoma (MPNST) spheroid; details: antagonist 12 µM, 3 days, endogenous adenosine, n=5 healthy donors
Experimental: A malignant peripheral nerve sheath tumor (MPNST) patient-derived sarcoma cell line was used to grow spheroid by seeding 1×10^4 cells per well in a 96-well ultra-low attachment plate (Thermo Fisher Scientific) with DMEM-F12 media containing 20% FBS and 1% PS for 5 days. 1×10^5 CSFE-labeled healthy PBMCs, ratio of 10:1, were added to the CD73 expressing, adenosine-producing spheroid at day five. Similar to the proliferation assay with exogenous ADO, CD3/CD28 beads at 1:4 ratio and IL-2 at 100 IU/mL were added. A2BAR antagonism treatment at 12 μM was added at the same day.
Figure 5 Rescue of lymphocyte proliferation in sarcoma spheroids by A2BAR antagonism. Relative proliferation of: (A) CD45RA- CD4 T cells, (B) CD45RA+CD4 T cells, (C) CD45RA- CD8 T cells and (D) CD45RA+ CD8 T cells after antagonist 12 µM treatment for 3 days in MPNST patient-derived sarcoma spheroid. (n=5 healthy donors) Box plots with minimum, first quartile, median, third quartile, and maximum are presented. Unpaired and non-parametric statistical analysis—Mann-Whitney test was performed against untreated control with *p<0.05, **p<0.01, ***p<0.001, and ****p<0.0001. (E) Representative CSFE dilution of CD45RA+ CD8 T cells. CD45RA expression differentiates naïve and effector T cells from central and effector memory T cells. MPNST, malignant peripheral nerve sheath tumors; UPS, undifferentiated pleomorphic sarcoma.

SMILES	Toxicity / cell viability (healthy donor PBMCs)	Dose dependence of the proliferation rescue on T and NK cells [1]	Rescue of killing in sarcoma TILs against autologous tumor cells [2]	Rescue of naïve and effector (CD45RA+) CD8 T cell proliferation in adenosine-producing sarcoma spheroids [3]
CC1=C(C(=O)OC(C)C)C(c2ccco2)n2c(nc3ccccc32)N1 (stereo not shown) [ISAM-140, isopropyl 4-(furan-2-yl)−2-methyl-1,4-dihydrobenzo[4 5] imidazo[1,2 a]pyrimidine-3-carboxylate]	non-toxic and even improved cell viability	dose-dependent		
CC1=C(C(=O)OC(C)C)C(c2ccco2)n2c(nc3ccccc32)N1Cc1ccccc1F (stereo not shown) [ISAM-R56A]			also rescued killing	significantly rescued
